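Cultured in 96-well plates, cells were exposed to test compound for 48 hours across five concentrations. Here, GI50 denotes the concentration required for 50% inhibition of growth. TGI: concentration producing complete growth inhibition.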
Tests used:
Assay in all cases: growth of human tumour cells (NCI), 48 h
MDA-N = system: MDA-N
DMS 273 small cell lung = system: DMS 273 small cell lung
SNB-78 CNS = system: SNB-78 CNS
RXF-631 renal = system: RXF-631 renal
M19-MEL melanoma = system: M19-MEL melanoma
XF 498 CNS = system: XF 498 CNS
DLD-1 colon = system: DLD-1 colon
KM20L2 colon = system: KM20L2 colon
LXFL 529 NSCLC = system: LXFL 529 NSCLC

`COc1cc(N(CCC#N)CCC#N)ccc1/C(N=Nc1ccc(Cl)cc1)=N/NC(=O)c1cc(Br)ccc1O` was tested, and the GI50 (MDA-N) was 90.3 µg/mL and the TGI (MDA-N) was greater than 150 µg/mL.

`Cc1ccc2nc(/C(=C/c3ccc(/C=C(\NC(=O)c4ccccc4)c4nc5ccc(C)cc5[nH]4)c(C)c3)NC(=O)c3ccccc3)[nH]c2c1` showed a TGI (DMS 273 small cell lung) greater than 100 µM, a TGI (SNB-78 CNS) of 79.1 µM and a TGI (RXF-631 renal) of 91.3 µM. For the same compound, the TGI (M19-MEL melanoma) was 44.8 µM, the TGI (XF 498 CNS) was 36.5 µM and the TGI (DLD-1 colon) was greater than 100 µM. It also gave a TGI (KM20L2 colon) of 45.3 µM and a TGI (LXFL 529 NSCLC) of 12.2 µM.

Compound `O=[N+]([O-])c1ccc2occ3c2c1CCC3` has a TGI (DMS 273 small cell lung) greater than 100 µM, a TGI (SNB-78 CNS) greater than 100 µM and a TGI (M19-MEL melanoma) greater than 100 µM. It also gave a TGI (DLD-1 colon) greater than 100 µM and a TGI (LXFL 529 NSCLC) greater than 100 µM.

For `COc1c(O)c2c(=O)cc3c4c5c(cc(=O)c6c(O)c(OC)c(CC(C)O)c(c(c1CC(C)O)c24)c65)OCO3` (centres undefined), the TGI (DMS 273 small cell lung) was 3.26 µM, the TGI (SNB-78 CNS) was 8.04 µM and the TGI (M19-MEL melanoma) was 2.08 µM. For the same compound, the TGI (DLD-1 colon) was 8.39 µM, the TGI (KM20L2 colon) was 1.69 µM and the TGI (LXFL 529 NSCLC) was 11.4 µM.

`CC1CC2CCCC(O)=C2C(=O)O1` (centres undefined) was tested, and the TGI (MDA-N) was greater than 100 µM.

`O=C(/C(=C/c1ccc(Cl)cc1)c1ccccc1)c1ccccc1` was tested, and the TGI (SNB-78 CNS) was 68.7 µM, the TGI (XF 498 CNS) was 34.5 µM and the TGI (DLD-1 colon) was 31.8 µM. It also gave a TGI (LXFL 529 NSCLC) of 33.7 µM.

In the case of `COC(=O)/C(=C/c1ccc(OC)cc1)C(C(=O)O)=C1CCCC1`, the TGI (DMS 273 small cell lung) is reported as greater than 100 µM, the TGI (SNB-78 CNS) is reported as greater than 100 µM and the TGI (RXF-631 renal) is reported as greater than 100 µM. For the same compound, the TGI (M19-MEL melanoma) was greater than 100 µM, the TGI (XF 498 CNS) was greater than 100 µM and the TGI (DLD-1 colon) was greater than 100 µM. The TGI (KM20L2 colon) was greater than 100 µM and the TGI (LXFL 529 NSCLC) was greater than 100 µM.

With `COc1ccc2c(c1OCC(=O)O)C(=O)C(CCC(=O)O)CC2` (centres undefined) the TGI (DMS 273 small cell lung) was greater than 100 µM, the TGI (SNB-78 CNS) was greater than 100 µM and the TGI (RXF-631 renal) was greater than 100 µM. It also gave a TGI (M19-MEL melanoma) greater than 100 µM, a TGI (XF 498 CNS) greater than 100 µM and a TGI (DLD-1 colon) greater than 100 µM. The TGI (KM20L2 colon) was greater than 100 µM and the TGI (LXFL 529 NSCLC) was greater than 100 µM.

Work on `C=CCC1(c2ccc(OC)cc2)C=CC(=O)CC1` (centres undefined) yielded a TGI (MDA-N) greater than 100 µM.

With `CCOc1ccc(/C=C2\N=C(c3ccc([N+](=O)[O-])cc3)OC2=O)cc1` the TGI (MDA-N) was greater than 100 µM.

With `NC(N)=NCCCC(=O)O` the TGI (MDA-N) was greater than 100 µM.

`Cc1nc(N)sc1N=Nc1ccccc1Br` gave a TGI (MDA-N) of 64.7 µM.

In the case of `COc1cc(C(=O)N2CCN(C(=O)c3cc(OC)c(OC)c(OC)c3)C2=S)cc(OC)c1OC`, the GI50 (MDA-N) is reported as 15 µM and the TGI (MDA-N) is reported as 33.9 µM.

`CC1(C)COC(c2cccc3c2C(=O)c2cccc(Cl)c2-3)=N1` gave a TGI (DMS 273 small cell lung) greater than 100 µM, a TGI (SNB-78 CNS) greater than 100 µM and a TGI (RXF-631 renal) greater than 100 µM. The TGI (XF 498 CNS) was greater than 100 µM, the TGI (KM20L2 colon) was greater than 100 µM and the TGI (LXFL 529 NSCLC) was greater than 100 µM.

Compound `CC12CCC(=O)C[C@H]1CCC(OC=O)C2Br` (some centres undefined) has a TGI (DMS 273 small cell lung) greater than 100 µM, a TGI (M19-MEL melanoma) greater than 100 µM and a TGI (XF 498 CNS) greater than 100 µM. For the same compound, the TGI (DLD-1 colon) was greater than 100 µM, the TGI (KM20L2 colon) was greater than 100 µM and the TGI (LXFL 529 NSCLC) was greater than 100 µM.

For `COC(=O)C1CCCC2(C1)OCCO2` (centres undefined), the TGI (DMS 273 small cell lung) was greater than 100 µM, the TGI (SNB-78 CNS) was greater than 100 µM and the TGI (RXF-631 renal) was greater than 100 µM. It also gave a TGI (M19-MEL melanoma) greater than 100 µM, a TGI (DLD-1 colon) greater than 100 µM and a TGI (KM20L2 colon) greater than 100 µM. The TGI (LXFL 529 NSCLC) was greater than 100 µM.

In the case of `C/C(CC(=O)Nc1ccc(C)c(C)c1)=N\N(c1ccccc1)c1ccccc1`, the TGI (DMS 273 small cell lung) is reported as 33.5 µM, the TGI (SNB-78 CNS) is reported as greater than 100 µM and the TGI (XF 498 CNS) is reported as greater than 100 µM. For the same compound, the TGI (DLD-1 colon) was greater than 100 µM, the TGI (KM20L2 colon) was 26 µM and the TGI (LXFL 529 NSCLC) was greater than 100 µM.

For `CN1C(=O)c2ccccc2NC(=O)C12O[C@@H]2c1ccccc1` (some centres undefined), the TGI (MDA-N) was greater than 100 µM.

`COC(=O)/C(C#N)=C1\N=NNN1c1ccc(OC)cc1` gave a TGI (DMS 273 small cell lung) greater than 100 µM, a TGI (SNB-78 CNS) greater than 100 µM and a TGI (RXF-631 renal) greater than 100 µM. For the same compound, the TGI (M19-MEL melanoma) was greater than 100 µM, the TGI (DLD-1 colon) was greater than 100 µM and the TGI (LXFL 529 NSCLC) was greater than 100 µM.

`CCOC(=O)N[C@H]1CCc2cc(OC)c(OC)c(OC)c2-c2ccc(SC)c(=O)cc21` gave a TGI (DMS 273 small cell lung) greater than 100 µM, a TGI (SNB-78 CNS) greater than 100 µM and a TGI (MDA-N) greater than 100 µM. It also gave a TGI (XF 498 CNS) of 29.8 µM, a TGI (DLD-1 colon) greater than 100 µM and a TGI (KM20L2 colon) of less than 0.01 µM.

`CCOC(=O)c1nc2c(OC)nn(O)cc-2c1[N+](=O)[O-]` gave a TGI (SNB-78 CNS) of 44.6 µM, a TGI (M19-MEL melanoma) of 89.2 µM and a TGI (XF 498 CNS) of 29.6 µM. It also gave a TGI (DLD-1 colon) of 33.7 µM, a TGI (KM20L2 colon) of 30.1 µM and a TGI (LXFL 529 NSCLC) of 31 µM.

`Cc1nc(Nc2ccc(Cl)cc2)sc1C(=O)NNC(=S)NN` gave a TGI (DMS 273 small cell lung) of 36.2 µM, a TGI (SNB-78 CNS) of 57.2 µM and a TGI (RXF-631 renal) of 36.1 µM. For the same compound, the TGI (M19-MEL melanoma) was 40.7 µM, the TGI (XF 498 CNS) was 38.4 µM and the TGI (DLD-1 colon) was 30.7 µM. It also gave a TGI (KM20L2 colon) of 32.5 µM and a TGI (LXFL 529 NSCLC) of 36.4 µM.

Work on `O=C(Nc1cccc(Cl)c1)C(=O)C(C(=O)c1ccc2ccccc2c1)C1OC(=O)c2ccccc21` (centres undefined) yielded a TGI (DMS 273 small cell lung) of 89.6 µM, a TGI (SNB-78 CNS) of 50.6 µM and a TGI (RXF-631 renal) of 81.2 µM. The TGI (M19-MEL melanoma) was 39.1 µM, the TGI (DLD-1 colon) was 32.7 µM and the TGI (KM20L2 colon) was greater than 100 µM. It also gave a TGI (LXFL 529 NSCLC) of 21.9 µM.

With `Cc1ccc(C)c(NC(=O)c2cccc([N+](=O)[O-])c2O)c1` the TGI (DMS 273 small cell lung) was 77.5 µM, the TGI (SNB-78 CNS) was 56.9 µM and the TGI (M19-MEL melanoma) was 82.1 µM. It also gave a TGI (XF 498 CNS) of 67.3 µM, a TGI (DLD-1 colon) greater than 100 µM and a TGI (KM20L2 colon) greater than 100 µM. It also gave a TGI (LXFL 529 NSCLC) greater than 100 µM.

For `N#C/C(=C\c1ccc2ccccc2c1)C(=O)c1ccccc1`, the TGI (DMS 273 small cell lung) was greater than 100 µM, the TGI (SNB-78 CNS) was greater than 100 µM and the TGI (M19-MEL melanoma) was greater than 100 µM. The TGI (MDA-N) was greater than 100 µM, the TGI (XF 498 CNS) was greater than 100 µM and the TGI (DLD-1 colon) was greater than 100 µM. For the same compound, the TGI (KM20L2 colon) was greater than 100 µM and the TGI (LXFL 529 NSCLC) was greater than 100 µM.

In the case of `Cc1cc2c(=O)c3ccccc3[nH]c2c(C(N)=O)c1C`, the TGI (SNB-78 CNS) is reported as greater than 100 µM, the TGI (RXF-631 renal) is reported as greater than 100 µM and the TGI (M19-MEL melanoma) is reported as greater than 100 µM. It also gave a TGI (XF 498 CNS) greater than 100 µM, a TGI (DLD-1 colon) greater than 100 µM and a TGI (KM20L2 colon) greater than 100 µM. It also gave a TGI (LXFL 529 NSCLC) greater than 100 µM.

From PubChem BioAssay (NCI)
